Measurements taken from US20200031771A1, “SUBSTITUTED PHENYLPROPIONIC ACID ENANTIOMER AND MANUFACTURING METHOD, COMPOSITION, AND APPLICATION OF SAME” (SHENZHEN CHIPSCREEN BIOSCIENCES CO., LTD., priority 2016, published 2020).

What was measured:
human PPARα = molecular target: T1, human PPARα (Homo sapiens, UniProt Q07869); assay: PPARα in vitro reporter gene assay (PPRE-luciferase) in L-02 cells; type: cell-based; details: 24 h after compound addition, luciferase corrected by GFP, read-out: EC50 (semi-activating activity) activating PPARα
T1 construct: expressed in transfected cells; host or cells: L-02
T1 sequence (Q07869 1-468): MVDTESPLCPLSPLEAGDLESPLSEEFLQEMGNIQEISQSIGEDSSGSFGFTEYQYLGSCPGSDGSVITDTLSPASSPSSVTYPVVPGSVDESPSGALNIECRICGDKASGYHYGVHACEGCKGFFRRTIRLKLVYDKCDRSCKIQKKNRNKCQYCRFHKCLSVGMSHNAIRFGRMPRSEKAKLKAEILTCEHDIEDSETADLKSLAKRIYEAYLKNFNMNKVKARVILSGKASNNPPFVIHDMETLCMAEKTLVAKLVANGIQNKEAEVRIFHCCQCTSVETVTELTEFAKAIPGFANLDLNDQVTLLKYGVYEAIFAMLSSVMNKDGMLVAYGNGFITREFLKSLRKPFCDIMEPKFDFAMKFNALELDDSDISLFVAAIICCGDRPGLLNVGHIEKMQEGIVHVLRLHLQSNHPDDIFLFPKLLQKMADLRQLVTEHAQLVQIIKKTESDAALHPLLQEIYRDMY
Protocol: The PPARα reporter gene detection system comprises a pCDNA3.1 luciferase expression plasmid (PPRE enhancer element was inserted into the upstream of the promoter), a green fluorescent protein GFP expression plasmid, and a human PPARα expression plasmid.
(§1) The above plasmids were co-transfected (Fugene 6.0 transfection reagent) into human hepatoma cell line L-02. 48 hours after transfection, different concentrations of test compounds were added. 24 hours after administration, the cells were treated with a luciferase assay kit (Promega E1910) and the fluorescence intensity of GFP (wavelength 485-527 nm) and luciferase substrate (wavelength 562 nm) were detected using a fluorescence detector (Fluoroskan Ascent FL) respectively. The GFP signal was used as an internal reference to correct the detected luciferase substrate signal, and a relative reporter activation intensity was obtained by comparing the above corrected signal to the blank control (without treatment of the compounds). The semi-activating activity (EC50) of the test compound was calculated from concentration gradient data.

RXR/PPARγ heterodimer = molecular target: T2, RXR/PPARγ heterodimer (Homo sapiens, UniProt P37231); assay: PPARγ in vitro reporter gene assay (pACOX reporter, PPARγ and RXR plasmids) in L-02 cells; type: cell-based; details: 24 h after compound addition, luciferase corrected by GFP, read-out: EC50 (semi-activating activity) activating PPARγ
T2 construct: expressed in transfected cells; host or cells: L-02
T2 sequence (P37231 1-505): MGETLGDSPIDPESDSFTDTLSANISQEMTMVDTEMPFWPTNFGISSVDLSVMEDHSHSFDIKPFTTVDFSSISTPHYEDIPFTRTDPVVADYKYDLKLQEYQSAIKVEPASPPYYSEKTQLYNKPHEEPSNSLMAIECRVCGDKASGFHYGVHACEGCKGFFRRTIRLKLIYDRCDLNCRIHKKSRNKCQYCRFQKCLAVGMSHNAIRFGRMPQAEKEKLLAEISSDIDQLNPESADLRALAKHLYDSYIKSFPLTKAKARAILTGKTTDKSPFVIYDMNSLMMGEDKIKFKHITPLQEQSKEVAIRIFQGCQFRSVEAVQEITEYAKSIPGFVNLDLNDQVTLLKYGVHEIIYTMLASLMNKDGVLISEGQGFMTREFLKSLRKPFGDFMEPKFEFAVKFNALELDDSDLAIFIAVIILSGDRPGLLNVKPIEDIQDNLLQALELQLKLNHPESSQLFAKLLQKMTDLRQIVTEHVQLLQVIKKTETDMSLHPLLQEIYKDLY
T2 sequence (P19793 1-462 partner): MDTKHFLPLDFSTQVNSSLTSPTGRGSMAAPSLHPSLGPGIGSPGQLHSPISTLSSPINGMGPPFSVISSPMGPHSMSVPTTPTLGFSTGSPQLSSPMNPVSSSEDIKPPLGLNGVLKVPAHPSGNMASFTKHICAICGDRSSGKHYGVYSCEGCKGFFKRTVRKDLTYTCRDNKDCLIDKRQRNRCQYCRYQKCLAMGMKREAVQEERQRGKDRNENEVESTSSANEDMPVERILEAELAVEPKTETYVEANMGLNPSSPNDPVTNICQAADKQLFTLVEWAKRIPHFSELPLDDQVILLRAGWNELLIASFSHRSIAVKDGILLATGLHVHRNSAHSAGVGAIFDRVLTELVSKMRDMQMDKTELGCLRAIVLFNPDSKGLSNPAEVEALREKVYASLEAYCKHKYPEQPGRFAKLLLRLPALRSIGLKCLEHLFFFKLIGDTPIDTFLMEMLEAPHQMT
Protocol: The PPARγ reporter gene detection system comprises a pACOX fluorescent reporter gene plasmid (the promoter comprises PPRE sequence), PPARγ expression plasmid, RXR expression plasmid, and a green fluorescent protein GFP expression plasmid.
as §1, with “FL),” for “FL)”

[1] = molecular target: T3, RXR/PPAR-6 heterodimer (PPARδ) (Homo sapiens, UniProt Q03181); assay: PPARδ in vitro reporter gene assay (pGL3-PPRE reporter, PPARδ and RXR plasmids) in L-02 cells; type: cell-based; details: 24 h after compound addition, luciferase corrected by GFP, read-out: EC50 (semi-activating activity) activating PPAR-6
T3 construct: expressed in transfected cells; host or cells: L-02
T3 sequence (Q03181 1-441): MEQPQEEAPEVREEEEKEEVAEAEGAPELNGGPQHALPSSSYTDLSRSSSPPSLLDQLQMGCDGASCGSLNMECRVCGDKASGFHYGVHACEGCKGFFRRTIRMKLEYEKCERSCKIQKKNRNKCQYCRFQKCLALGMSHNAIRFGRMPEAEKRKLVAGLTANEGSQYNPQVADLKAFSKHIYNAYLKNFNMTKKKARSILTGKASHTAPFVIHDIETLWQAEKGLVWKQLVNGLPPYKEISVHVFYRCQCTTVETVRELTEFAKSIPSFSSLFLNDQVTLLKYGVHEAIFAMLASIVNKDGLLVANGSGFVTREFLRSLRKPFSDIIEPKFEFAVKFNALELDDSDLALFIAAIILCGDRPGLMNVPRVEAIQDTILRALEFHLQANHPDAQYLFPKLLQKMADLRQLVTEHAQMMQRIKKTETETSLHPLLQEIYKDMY
T3 sequence (P19793 1-462 partner): T2 sequence (P19793 1-462 partner)
Protocol: The PPARδ reporter gene detection system comprises a pGL3-PPRE fluorescent reporter gene plasmid (PPRE enhancer element was inserted into the upstream of the promoter), PPARδ expression plasmid, RXR expression plasmid, and a green fluorescent protein GFP expression plasmid.
as §1, with “Ascent FL),” for “Ascent FL)”, “signal is” for “signal was”

db/db mice [2] = assay: Fasting blood glucose in db/db mice during 14 days of oral administration; type: in vivo, mouse; details: oral once a day, enantiomers 20 mg/kg, rosiglitazone 5 mg/kg, 6 h fasting; for Fasting blood glucose, average value, Day 0: Day 0, n = 10; for Fasting blood glucose, average value, Day 3: Day 3, n = 10; for Fasting blood glucose, average value, Day 6: Day 6, n = 10; for Fasting blood glucose, average value, Day 9: Day 9, n = 10; for Fasting blood glucose, average value, Day 12: Day 12, n = 10; for Fasting blood glucose, average value, Day 14: Day 14, n = 10
Protocol: (§2) The route of administration was oral, the dose was 20 mg/kg in the administration group and 5 mg/kg in the control group, the frequency of administration was once a day, and the administration period was 14 days. […] On days 0, 3, 6, 9, 12, and 14, after fasting for 6 hours after administration, blood was collected from the tail vein and fasting blood glucose levels was measured by a blood glucose meter and recorded.

db/db mice [3] = assay: Glucose tolerance test (OTGG) in db/db mice after 14 days of administration; type: in vivo, mouse; details: n = 10; for Blood glucose in glucose tolerance test, average value, 15 min: 15 min after oral 2 g/kg glucose; for Blood glucose in glucose tolerance test, average value, 30 min: 30 min after oral 2 g/kg glucose; for Blood glucose in glucose tolerance test, average value, 60 min: 60 min after oral 2 g/kg glucose; for Blood glucose in glucose tolerance test, average value, 120 min: 120 min after oral 2 g/kg glucose; for Glucose tolerance test AUC, average value: oral 2 g/kg glucose, 0-120 min; for Blood glucose in glucose tolerance test, average value, 0 min: overnight fast, before oral 2 g/kg glucose (0 min)
Protocol: as §2
After 14 days of administration, the animals were fasted overnight (<10 hours), and orally given 2 g/kg of glucose on the next day. Blood was collected from the tail vein at the 0 (pre-administration or fasting blood glucose level), 15, 30, 60 and 120 minutes after administration, respectively, and blood glucose levels were then measured by blood glucose meter and recorded.

| EC50 (human PPARα) | EC50 (RXR/PPARγ heterodimer) | EC50 [1] | SMILES | Fasting blood glucose, average value, Day 0 (db/db mice [2]) | Fasting blood glucose, average value, Day 3 (db/db mice [2]) | Fasting blood glucose, average value, Day 6 (db/db mice [2]) | Fasting blood glucose, average value, Day 9 (db/db mice [2]) | Fasting blood glucose, average value, Day 12 (db/db mice [2]) | Fasting blood glucose, average value, Day 14 (db/db mice [2]) | Blood glucose in glucose tolerance test, average value, 15 min (db/db mice [3]) | Blood glucose in glucose tolerance test, average value, 30 min (db/db mice [3]) | Blood glucose in glucose tolerance test, average value, 60 min (db/db mice [3]) | Blood glucose in glucose tolerance test, average value, 120 min (db/db mice [3]) | Glucose tolerance test AUC, average value (db/db mice [3]) | Blood glucose in glucose tolerance test, average value, 0 min (db/db mice [3]) |
| --- | --- | --- | --- | --- | --- | --- | --- | --- | --- | --- | --- | --- | --- | --- | --- |
| 5380 nM | 2710 nM | > 10000 nM | O=C(c1ccc(F)cc1)c1ccccc1NC(Cc1ccc(OCCn2c3ccccc3c3ccccc32)cc1)C(=O)O (single isomer, unassigned; (+)) [Enantiomer 2, (+)-2-[(2-(4-fluorobenzoyl)phenyl)amino]-3-[(4-(2-carbazole-ethoxy)phenyl)]propionic acid] | 18.86 | 23.99 | 20.03 | 26.01 | 26.44 | 17.18 | 31.87 | 33.3 | 30.94 | 25.75 | 59.16 | 17.18 |
| 1140 nM | 76 nM | 1930 nM | O=C(c1ccc(F)cc1)c1ccccc1NC(Cc1ccc(OCCn2c3ccccc3c3ccccc32)cc1)C(=O)O (single isomer, unassigned; (-)) [Enantiomer 1, (−)-2-[(2-(4-fluorobenzoyl)phenyl)amino]-3-[(4-(2-carbazole-ethoxy)phenyl)]propionic acid] | 18.43 | 18.2 | 14.7 | 18.14 | 16.18 | 10.98 | 28.02 | 32.26 | 26.6 | 14.69 | 47.77 | 10.98 |
| – | – | – | CN(CCOc1ccc(CC2SC(=O)NC2=O)cc1)c1ccccn1 (centres unmarked) [rosiglitazone, reference compound] | 19.09 | 13.58 | 13.8 | 15.05 | 14.44 | 11.29 | 28.11 | 31.22 | 25.08 | 13.61 | – | 11.29 |
